From paper PMC11400633, “Peptides inhibiting the assembly of monomeric human L‐lactate dehydrogenase into catalytically active homotetramer decrease the synthesis of lactate in cultured cells” (Protein Science : A Publication of the Protein Society, 2024)
The star is where a group is joined. OBn = c1ccc(CO*)cc1

Key:
monomeric human LDH‐A [1] = target: T1, monomeric human LDH‐A (Homo sapiens, UniProt P00338); assay: Inhibition by peptides of LDH-A activity gained on assembly of monomeric LDH-A into tetramer; format: biochemical; conditions: 80 μM peptide incubated 5 min with 6.2 nM monomeric LDH-A, 10 mM Tris-HCl + 10 mM BisTris pH 7.5, started with 125 μM β-NADH and 500 μM pyruvate, 25°C, A340, vs control with 1% DMSO, mean ± SD, n = 3
T1 construct: made in house; host or cells: E. coli BL21(DE3), pET9a (NdeI/BamHI)
Experimental: (§1) In particular, all the peptides were tested at 80 μM (final concentration), and the LDH activity detected in their presence was compared with the catalytic action observed with control samples devoid of any peptide. First, we decided to assay the octameric peptide TH1, the primary structure of which ([…]) is identical to the LDH‐A region spanning residues 295–302. […] Indeed, the catalytic action exerted by 6 nM tetrameric LDH‐A (in 10 mM Tris–HCl, pH 7.5, containing 150 mM NaCl) was determined as equal to 433 ± 11 and 452 ± 19 nM/s in the absence and in the presence of 80 μM TH1 octapeptide, respectively. Overall, this insensitivity along with the significant effect elicited by TH1 on monomeric LDH‐A indicate that the octapeptide inhibits the assembly of LDH‐A monomers into the corresponding, catalytically active, tetramer. To dissect the inhibition triggered by TH1 on monomeric LDH‐A, we decided to evaluate: (i) whether or not the two halves of the octapeptide, that is, GQNG and ISDL, are equally competent in inhibiting LDH‐A; (ii) the action of linear and cyclic peptides, containing or not D amino acids; and (iii) the effect, if any, triggered by the presence of protecting groups in the peptides to be assayed. It should be noted that to allow the cyclization of tetrapeptide GQNG while maintaining a terminal carboxylic group, the sequence was modified to GQND, while for the cyclization of ISDL while maintaining a terminal amino group, the sequence was modified into KSDL (Table 1).
FIGURE 8 Inhibition exerted by linear and cyclic peptides on LDH‐A activity detected in vitro. […] The gray bars (in “a” and “d”) represent the activity observed in the presence of the same volume of DMSO (1%, v/v) carried to the assay mixtures by the peptides to be tested. (a–c) The effect, if any, of tetrameric peptides featuring the GQND primary structure (see also Table 1) on LDH‐A activity is shown. The inhibition exerted by the octameric peptide TH1 is also reported in “a.” The enzyme activity observed in the presence of linear or cyclic peptides is shown in “b” and “c”, respectively. (d) Extent of LDH‐A activity detected in the presence of linear or cyclic tetrapeptides featuring the KSDL primary structure. Error bars represent SD (n = 3). The experimental observations were compared by Student's t‐test. The ***, **, and * symbols denote p values lower than 0.001, 0.01, and […], respectively. (e) Simulation of the association between the TH2 peptide and monomeric LDH‐A. Predicted interactions between the cyclopeptide c[GQN‐isoD] (TH2) and the N‐terminal sequence Y^9[…]^19, as simulated by molecular dynamics in a box of explicit TIP3P water molecules; gray and red dotted lines represent hydrogen bonds and salt bridges, respectively.
All the assays were performed at 25°C using a Cary 300 Bio spectrophotometer.

tetrameric LDH‐A [2] = target: T2, tetrameric LDH‐A (Homo sapiens, UniProt P00338); assay: Activity assay of tetrameric LDH-A in the presence of peptide; format: biochemical; conditions: 6 nM tetrameric LDH-A, 10 mM Tris-HCl pH 7.5, 150 mM NaCl, 80 μM peptide
T2 construct: made in house; host or cells: E. coli BL21(DE3), pET9a (NdeI/BamHI)
Experimental: as §1, with “It should be noted that to allow the cyclization of tetrapeptide GQNG while maintaining a terminal carboxylic group, the sequence was modified to GQND, while for the cyclization of ISDL while maintaining a terminal amino group, the sequence was modified into KSDL (Table 1).” left out

MCF7 cells = assay: Colorimetric assay of lactate secretion by MCF7 cells (expressing LDH-A); format: cell-based, human; conditions: MCF7, 80 μM peptide with Lipofectamine 2000 (0.5% v/v), 1% DMSO, Krebs-Ringer buffer, 4 h, 37°C, colorimetric; n = 3; vs cells without peptide
Excerpt: Having identified peptides able to interfere with the assembly of monomeric LDH‐A into catalytically active tetramer, we considered of interest to test the action of peptides against LDH‐A expressed in human cell lines. In particular, we analyzed the lactate secreted by cultured human cells exposed or not to the peptides better performing as inhibitors of LDH‐A in vitro, that is, TH1, TH2, and TH16. Moreover, we used two different cell lines exclusively expressing LDH‐A or LDH‐B, that is, MCF7 and BxPC3, respectively. In MCF7 cells, the [mRNALDH‐A]/[mRNALDH‐B] ratio is indeed equal to ca. 150 (Figure 9a), whereas in BxPC3 cells the messenger coding for LDH‐A was not detected (Figure 9a). Therefore, by comparing the decrease, if any, of the lactate concentration secreted by these two cell lines the selectivity of peptides acting against LDH‐A or LDH‐B can be conveniently estimated. When the MCF7 cell line is considered, the linear TH16 and the cyclic TH2 tetrapeptide performed equally, being both responsible for a concentration of secreted lactate 20% lower than that detected in their absence (Figure 9b). […] Accordingly, it seems likely that lipofectamine is effective in assisting the penetration of the TH16 and TH2 peptides into cells, with this action of lipofectamine being much weaker when dealing with a larger molecule, that is, an octapeptide.
To evaluate the competence of peptides in inhibiting the action of LDH‐A in cultured cells, two human cell cultures were used: MCF7 and BxPC3, isolated from breast and pancreatic adenocarcinoma, respectively. Cultures were grown in DMEM (MCF7) or RPMI medium (BxPC3), supplemented with 100 U/ml penicillin/streptomycin, 2 mM glutamine and 10% (v/v) FBS. All the components of the media used for cell culture were obtained from Merck‐Millipore.
The competence of peptides in inhibiting LDH in cultured cells was tested by assessing the concentration of lactate released by MCF7 and BxPC3 cell cultures. To this aim, cells were seeded in duplicate in 24‐wells plates (2 × 10^5/well) and let to adhere overnight; the culture medium was then replaced by Krebs‐Ringer buffer (300 μl/well). Stock solutions of peptides (8 mM in DMSO) were diluted in Krebs‐Ringer buffer to a final concentration of 640 μM and mixed with an equal volume of 4% (v/v, in Krebs‐Ringer buffer) Lipofectamine 2000 (Invitrogen). The final solution was thoroughly mixed, kept for 25 min at room temperature, and finally 100 μl were added to each plate well, obtaining a final peptide concentration equal to 80 μM. The concentration of lactate released in the Krebs–Ringer buffer was determined after 4 h of incubation at 37°C, using the colorimetric assay previously reported (Rossi et al., [2023]). Each experiment was performed in triplicate and included control samples consisting of untreated cell cultures exposed to the same final concentration of DMSO (1%, v/v) and Lipofectamine (0.5%, v/v) to which were exposed the samples treated with peptides.

BxPC3 cells = assay: Colorimetric assay of lactate secretion by BxPC3 cells (expressing LDH-B); format: cell-based, human; conditions: BxPC3, 80 μM peptide with Lipofectamine 2000 (0.5% v/v), 1% DMSO, Krebs-Ringer buffer, 4 h, 37°C, n = 3
Excerpt: Having identified peptides able to interfere with the assembly of monomeric LDH‐A into catalytically active tetramer, we considered of interest to test the action of peptides against LDH‐A expressed in human cell lines. In particular, we analyzed the lactate secreted by cultured human cells exposed or not to the peptides better performing as inhibitors of LDH‐A in vitro, that is, TH1, TH2, and TH16. Moreover, we used two different cell lines exclusively expressing LDH‐A or LDH‐B, that is, MCF7 and BxPC3, respectively. In MCF7 cells, the [mRNALDH‐A]/[mRNALDH‐B] ratio is indeed equal to ca. 150 (Figure 9a), whereas in BxPC3 cells the messenger coding for LDH‐A was not detected (Figure 9a). Therefore, by comparing the decrease, if any, of the lactate concentration secreted by these two cell lines the selectivity of peptides acting against LDH‐A or LDH‐B can be conveniently estimated. When the MCF7 cell line is considered, the linear TH16 and the cyclic TH2 tetrapeptide performed equally, being both responsible for a concentration of secreted lactate 20% lower than that detected in their absence (Figure 9b). […] It should indeed be noted that the assays with cells were performed in the presence of lipofectamine (see Section 5). […] Accordingly, it seems likely that lipofectamine is effective in assisting the penetration of the TH16 and TH2 peptides into cells, with this action of lipofectamine being much weaker when dealing with a larger molecule, that is, an octapeptide.
To evaluate the competence of peptides in inhibiting the action of LDH‐A in cultured cells, two human cell cultures were used: MCF7 and BxPC3, isolated from breast and pancreatic adenocarcinoma, respectively. […]
The competence of peptides in inhibiting LDH in cultured cells was tested by assessing the concentration of lactate released by MCF7 and BxPC3 cell cultures. […] The concentration of lactate released in the Krebs–Ringer buffer was determined after 4 h of incubation at 37°C, using the colorimetric assay previously reported (Rossi et al., [2023]). […]

tetrameric LDH‐A [3] = target: T2, tetrameric LDH‐A; assay: Steady-state kinetics of pyruvate reduction by tetrameric LDH-A; format: biochemical; conditions: variable β-NADH, 500 μM pyruvate, 1.9 nM tetramer, pH 7.5, 25°C
Experimental: (§2) To further characterize the catalytic action of monomeric LDH-A exposed to β-NADH and pyruvate, and therefore assembled into tetramer (cf. […] In addition, the kinetics of pyruvate reduction catalyzed by tetrameric LDH-A was assayed under the same conditions used for the monomeric enzyme. Structurally and functionally speaking, the availability of monomeric LDH-A does indeed provide an unprecedented and quite interesting tool to perform quantitative tests of the assembly of monomers into the corresponding catalytically active tetramer. […] In addition to this, the enzyme kinetic parameters were also determined testing reaction velocity as a function of β-NADH concentration, in the presence of 500 μM pyruvate. […] The continuous lines represent the best fit of the Michaelis-Menten equation to the experimental observations. […] The continuous lines represent the best fit of the Michaelis-Menten equation to the experimental observations. (c) Kinetic parameters determined by performing activity assays using monomeric or tetrameric LDH-A, at the indicated final concentrations. Under conditions of variable pyruvate concentration, β-NADH was always used at 125 μM. When reaction mixtures contained variable concentrations of the redox cofactor, pyruvate was invariably added at 500 μM. All the assays were performed at pH 7.5 (Tris-BisTris, 10 mM each.

monomeric human LDH‐A [4] = target: T1, monomeric human LDH‐A; assay: Steady-state kinetics of pyruvate reduction by monomeric LDH-A (assembled monomers); format: biochemical; conditions: variable β-NADH, 500 μM pyruvate, 7.6 nM monomer, pH 7.5, 25°C
Experimental: as §2

Substance | Inhibition (%) of LDH‐A activity (monomeric human LDH‐A [1]) | further results
c[Gly‐Gln‐Asn‐D‐isoAsp(OBn)] (head to tail) [TH11] | 8 ± 4% | 
c[Gly‐Gln‐Asn‐isoAsp(OBn)] (head to tail) [TH10] | 6 ± 3% | 
H-GQNGISDL-OH [TH1] | 36 ± 1% | inhibition of tetrameric LDH‐A activity (in words) (tetrameric LDH‐A [2]): no significant inhibition; catalytic action exerted by tetrameric LDH‐A in the presence of peptide (tetrameric LDH‐A [2]; without peptide 433 ± 11 nM/s): 452 ± 19 nM/s; decrease of the concentration of secreted lactate (MCF7 cells): did not induce any significant effect; effect on lactate secretion (BxPC3 cells): did not induce any significant effect
H-GQND-OBn (SMILES NCC(=O)N[C@@H](CCC(N)=O)C(=O)N[C@@H](CC(N)=O)C(=O)N[C@@H](CC(=O)O)C(=O)OCc1ccccc1) [TH6] | 14 ± 7% | 
c[isoLys‐Ser‐Asp‐Leu] (sidechain bridge or staple) [TH4] | 16 ± 3% | 
β‐NADH |  | K m for β‐NADH, tetrameric LDH‐A (tetrameric LDH‐A [3]): 9.0 ± 0.6 µM; K m for β‐NADH, monomeric LDH‐A (assembled monomers) (monomeric human LDH‐A [4]): 7.7 ± 1.1 µM
H‐Lys‐Ser‐Asp‐Leu‐OH [TH18] | 5 ± 6% | 
